The record followed here is ChEMBL document CHEMBL4390649, “Fine-tuning the neuroprotective and blood-brain barrier permeability profile of multi-target agents designed to prevent progressive mitochondrial dysfunction” (Eur J Med Chem, 2019).

Active and inactive are the calls of the source. The calls are words filed in the database; no cut-off is given here. A value given as a limit tells only on which side of the number the result lay.

The nature of data set [1]: Antioxidant activity assessed as DPPH radical scavenging activity measured after 45 mins by UV-Visible spectrophotometric based assay. The class given is functional.
The subject of data set [2] is SH-SY5Y. Nature of the data set: Induction of ROS generation in human SH-SY5Y cells at 50 uM incubated for 24 hrs by DCFH-DA probe based fluorescence assay relative to control. The class given is functional.
Data set [3] can be described thus: Cytotoxicity against human HepG2 cells assessed as cell metabolic activity at 10 uM incubated for 48 hrs by resazurin assay relative to control. It counts as ADME, cell-based. The following applies: read-out: Activity.
The nature of data set [4]: Electrochemical behavior of the compound assessed as redox potential corrected toward saturated Ag/AgCl reference electrode by differential pulse voltammetry.
Data set [5] has as its system SH-SY5Y. Description: Neuroprotective activity against TBHP-induced oxidative damage in human SH-SY5Y cells assessed as increase in cell viability at 10 uM pretreated for 24 hrs followed by TBHP stimulation measured after 4 hrs by MTT assay relative to control. It counts as functional, cell-based.
The subject of data set [6] is SH-SY5Y. Nature of the data set: Neuroprotective activity against 6-OHDA-induced toxicity in human SH-SY5Y cells assessed as reduction in cell damage at 10 uM pretreated for 24 hrs followed by 6-OHDA challenge and measured after 24 hrs by MTT assay relative to control. The class given is functional. Details: scale not given: the % may be the effect or the level left.

Data set [7] concerns SH-SY5Y. Description: Neuroprotective activity against TBHP-induced oxidative damage in human SH-SY5Y cells assessed as increase in cell viability at 50 uM pretreated for 24 hrs followed by TBHP stimulation measured after 4 hrs by MTT assay relative to control. The class given is functional.
The nature of data set [8]: Cytotoxicity against human SH-SY5Y cells assessed as cell metabolic activity at 10 uM incubated for 24 hrs by MTT assay relative to control. The class given is ADME, cell-based. The following applies: read-out: Activity.
Data set [9] is described as follows: Metal chelating activity assessed as compound-Fe2+ complex formation at 100 uM incubated for 10 mins by ferrozine spectrophotometric assay.
A short description of data set [10]: Antioxidant activity assessed as ABTS radical scavenging activity measured after 15 mins by UV-Visible spectrophotometric based assay. It counts as functional.
Data set [11] in a line: Electrochemical behavior of the compound assessed as redox potential corrected toward saturated Ag/AgCl reference electrode by cyclic voltammetry.
Data set [12] in a line: Cytotoxicity against human HepG2 cells assessed as cell metabolic activity at 50 uM incubated for 48 hrs by resazurin assay relative to control. It counts as ADME, cell-based. The following applies: read-out: Activity.
A short description of data set [13]: Cytotoxicity against human SH-SY5Y cells assessed as cell metabolic activity at 50 uM incubated for 24 hrs by MTT assay relative to control. The following applies: read-out: Activity. It counts as ADME, cell-based.

Turning to `CS(=O)(=O)[O-].O=C(/C=C/c1cc(O)c(O)c(O)c1)NCCCCCC[P+](c1ccccc1)(c1ccccc1)c1ccccc1`, the figures for the half-maximal inhibitory concentration (IC50) in [1] and in [10] were 19 µM and 12.2 µM, respectively. Also, in data set [2], the result was Active. Also, in data set [3], the viability at 48 h, 10 µM is 105%. Besides, the Activity in data set [4] is 709 mV; in data set [6], 19.8%; in data set [9], more than 80%; in data set [11], 34 mV. Further, the result in data set [5] and in data set [7] was inactive. For the same compound, the viability at 24 h, 10 µM in [8] was found to be 104%. In data set [12], the viability at 48 h, 50 µM stood at 94.7%. Besides, the viability at 24 h, 50 µM in [13] stood at 94%.
